In ChEMBL document CHEMBL3232725, “2-Aryl-3H-indol-3-ones: synthesis, electrochemical behaviour and antiplasmodial activities” (Eur J Med Chem, 2014):

How the values were obtained:
Plasmodium falciparum = assay: Antiplasmodial activity against chloroquine-resistant Plasmodium falciparum FcB1 infected in RBC assessed as inhibition of [3H]-hypoxanthine incorporation after 48 hrs by beta-counting; assay type: functional, organism-based; details: FcB1/Columbia
[1] = Cytotoxicity against human MCF7 cells after 48 hrs by XTT reduction assay; assay type: cell-based
[2] = Selectivity index, ratio of CC50 for human MCF7 cells to IC50 for chloroquine-resistant Plasmodium falciparum FcB1 infected in RBC; assay type: functional

Compound | IC50 (Plasmodium falciparum) [µM] | CC50 at 48 h [1] [µM] | Ratio CC50/IC50 [2]
O=C1C(c2ccc(Cl)cc2)=Nc2ccccc21 | 0.192 | 20.3 | 105
COc1ccc2c(c1)C(=O)C(c1ccc(O)cc1)=N2 | 0.099 | 16 | 164
COc1ccc2c(c1)C(=O)C(c1ccccc1)=N2 | 0.141 | 21 | 146
O=C1C(c2ccccc2)=Nc2ccccc21 | 1.33 | 164 | 135
O=C1C(c2ccc(O)cc2)=Nc2ccccc21 | 0.101 | 130 | 1289
COc1ccc2c(c1)C(=O)C(c1ccc(OC(C)C)cc1)=N2 | 0.088 | 11.2 | 127
COc1ccc(C2=Nc3ccccc3C2=O)cc1 | 0.514 | 38 | 74
COc1ccc2c(c1)C(=O)C(c1ccc(N(C)C)cc1)=N2 | 0.049 | 20.7 | 423.4
C[C@H]1[C@H](OC(=O)CCC(=O)O)O[C@@H]2O[C@@]3(C)CC[C@H]4[C@H](C)CC[C@@H]1[C@@]24OO3 [SODIUM ARESUNATE] | 0.006 | – | –
COc1ccc(C2=Nc3ccc(OC)cc3C2=O)cc1 | 0.08 | 30.7 | 381.4
